From patent US11655225B2, “Antimycobacterial heterocyclic amides” (Crestone, Inc., priority 2018, dated 2023)
≈ marks a conversion by molar mass, not a printed value.

System: isoniazid-, rifampin-, and fluoroquinolone-resistant M. tuberculosis
Assay: microbe, parasite or virus in culture
Assay type: cell-based
Conditions: for MIC: Mycobacterium tuberculosis; for activity against resistant strains: isoniazid-, rifampin-, and fluoroquinolone-resistant M. tuberculosis

Row | SMILES | MIC | activity against resistant strains
1 | CC12CCCC(C(=O)Nc3nc4cc(Cl)cc(Cl)c4s3)(CCC1)C2 [Example 2, N-(5,7-dichloro-1,3-benzothiazol-2-yl)-5-methylbicyclo[3.3.1]nonane-1-carboxamide] | 0.03 to 4 µg/mL (≈ 0.0783 to 10.4 µM) | active
2 | CC12CCCC(C(=O)Nc3nc4ccc(OC(F)(F)F)cc4s3)(CCC1)C2 [Example 5, 5-methyl-N-[6-(trifluoromethoxy)-1,3-benzothiazol-2-yl]bicyclo[3.3.1]nonane-1-carboxamide] | 0.03 to 4 µg/mL (≈ 0.0753 to 10 µM) | active
3 | CC12CC3CC(C)(C1)CC(C(=O)Nc1nc4ccc(OC(F)(F)F)cc4s1)(C3)C2 [Example 45, 3,5-dimethyl-N-[6-(trifluoromethoxy)-1,3-benzothiazol-2-yl]adamantane-1-carboxamide] | 0.03 to 4 µg/mL (≈ 0.0707 to 9.42 µM) | active
4 | CC1CC(C(=O)Nc2nc3ccc(OC(F)(F)F)cc3s2)CC(C)(C)C1 (stereo not shown) [Example 46, 3,3,5-trimethyl-N-[6-(trifluoromethoxy)-1,3-benzothiazol-2-yl]cyclohexane-1-carboxamide] | 0.03 to 4 µg/mL (≈ 0.0776 to 10.4 µM) | active
5 | CC1CC(C(=O)Nc2nc3c(F)cc(F)cc3s2)CC(C)(C)C1 (stereo not shown) [Example 80, N-(4,6-difluoro-1,3-benzothiazol-2-yl)-3,3,5-trimethylcyclohexane-1-carboxamide] | 0.03 to 4 µg/mL (≈ 0.0886 to 11.8 µM) | active
